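Five compound concentrations were applied to cells in 96-well plates for 48 hours; endpoints were derived by simple linear interpolation of the resulting dose-response curve. TGI: total growth inhibition.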
Assays:
Experiment in all cases: NCI-60 cell line screen, 48 h
NCI-H226 lung = tested on: NCI-H226 lung
SK-MEL-2 melanoma = tested on: SK-MEL-2 melanoma
SN12C renal = tested on: SN12C renal
SF-539 CNS = tested on: SF-539 CNS
ACHN renal = tested on: ACHN renal
NCI/ADR-RES ovarian = tested on: NCI/ADR-RES ovarian
U251 CNS = tested on: U251 CNS
COLO 205 colon = tested on: COLO 205 colon
UO-31 renal = tested on: UO-31 renal
T-47D breast = tested on: T-47D breast
MCF7 breast = tested on: MCF7 breast
SR leukemia = tested on: SR leukemia
HCC-2998 colon = tested on: HCC-2998 colon
EKVX NSCLC = tested on: EKVX NSCLC
MALME-3M melanoma = tested on: MALME-3M melanoma
OVCAR-5 ovarian = tested on: OVCAR-5 ovarian
HT29 colon = tested on: HT29 colon
PC-3 prostate = tested on: PC-3 prostate
SK-OV-3 ovarian = tested on: SK-OV-3 ovarian
BT-549 breast = tested on: BT-549 breast
SF-295 CNS = tested on: SF-295 CNS
SNB-75 CNS = tested on: SNB-75 CNS
HCT-116 colon = tested on: HCT-116 colon
K-562 leukemia = tested on: K-562 leukemia
RXF 393 renal = tested on: RXF 393 renal
M14 melanoma = tested on: M14 melanoma
CCRF-CEM leukemia = tested on: CCRF-CEM leukemia
HOP-62 NSCLC = tested on: HOP-62 NSCLC
MDA-MB-435 = tested on: MDA-MB-435
SNB-19 CNS = tested on: SNB-19 CNS
NCI-H23 lung = tested on: NCI-H23 lung
HS 578T breast = tested on: HS 578T breast
OVCAR-3 ovarian = tested on: OVCAR-3 ovarian
IGROV1 ovarian = tested on: IGROV1 ovarian
KM12 colon = tested on: KM12 colon
TK-10 renal = tested on: TK-10 renal
OVCAR-8 ovarian = tested on: OVCAR-8 ovarian
SF-268 CNS = tested on: SF-268 CNS
NCI-H522 lung = tested on: NCI-H522 lung
OVCAR-4 ovarian = tested on: OVCAR-4 ovarian
DU-145 prostate = tested on: DU-145 prostate
A549 NSCLC = tested on: A549 NSCLC
HCT-15 colon = tested on: HCT-15 colon
UACC-257 melanoma = tested on: UACC-257 melanoma
A498 renal = tested on: A498 renal
MDA-N = tested on: MDA-N
MDA-MB-231 breast = tested on: MDA-MB-231 breast
SK-MEL-5 melanoma = tested on: SK-MEL-5 melanoma
NCI-H460 lung = tested on: NCI-H460 lung
786-0 renal = tested on: 786-0 renal
CAKI-1 renal = tested on: CAKI-1 renal
MOLT-4 leukemia = tested on: MOLT-4 leukemia
UACC-62 melanoma = tested on: UACC-62 melanoma
RPMI-8226 leukemia = tested on: RPMI-8226 leukemia
LOX IMVI melanoma = tested on: LOX IMVI melanoma
HOP-92 NSCLC = tested on: HOP-92 NSCLC
HL-60(TB) leukemia = tested on: HL-60(TB) leukemia
SK-MEL-28 melanoma = tested on: SK-MEL-28 melanoma

In the case of `O=C(/C=C(\O)c1ccc(Cl)cc1)C(=O)NN=C(c1ccccc1)c1ccccc1`, the TGI (NCI-H226 lung) is reported as greater than 100 µM, the TGI (SK-MEL-2 melanoma) is reported as greater than 100 µM and the TGI (SN12C renal) is reported as greater than 100 µM. For the same molecule, the TGI (SF-539 CNS) was greater than 100 µM, the TGI (ACHN renal) was greater than 100 µM and the TGI (NCI/ADR-RES ovarian) was 50.3 µM. It also gave a TGI (U251 CNS) greater than 100 µM, a TGI (COLO 205 colon) of 74.4 µM and a TGI (UO-31 renal) of 90.4 µM. The TGI (T-47D breast) was greater than 100 µM, the TGI (MCF7 breast) was greater than 100 µM and the TGI (SR leukemia) was greater than 100 µM. For the same molecule, the TGI (HCC-2998 colon) was greater than 100 µM, the TGI (EKVX NSCLC) was greater than 100 µM and the TGI (MALME-3M melanoma) was greater than 100 µM. It also gave a TGI (OVCAR-5 ovarian) greater than 100 µM, a TGI (HT29 colon) greater than 100 µM and a TGI (PC-3 prostate) greater than 100 µM. The TGI (SK-OV-3 ovarian) was greater than 100 µM, the TGI (BT-549 breast) was greater than 100 µM and the TGI (SF-295 CNS) was greater than 100 µM. It also gave a TGI (SNB-75 CNS) greater than 100 µM, a TGI (HCT-116 colon) greater than 100 µM and a TGI (K-562 leukemia) greater than 100 µM. It also gave a TGI (RXF 393 renal) greater than 100 µM, a TGI (M14 melanoma) greater than 100 µM and a TGI (CCRF-CEM leukemia) of 98.5 µM. It also gave a TGI (HOP-62 NSCLC) greater than 100 µM, a TGI (MDA-MB-435) greater than 100 µM and a TGI (SNB-19 CNS) greater than 100 µM. It also gave a TGI (NCI-H23 lung) greater than 100 µM, a TGI (HS 578T breast) of 85.3 µM and a TGI (OVCAR-3 ovarian) greater than 100 µM. It also gave a TGI (IGROV1 ovarian) greater than 100 µM, a TGI (KM12 colon) greater than 100 µM and a TGI (TK-10 renal) greater than 100 µM. For the same molecule, the TGI (OVCAR-8 ovarian) was 97.6 µM, the TGI (SF-268 CNS) was greater than 100 µM and the TGI (NCI-H522 lung) was 49 µM. For the same molecule, the TGI (OVCAR-4 ovarian) was greater than 100 µM, the TGI (DU-145 prostate) was greater than 100 µM and the TGI (A549 NSCLC) was greater than 100 µM. For the same molecule, the TGI (HCT-15 colon) was greater than 100 µM, the TGI (UACC-257 melanoma) was greater than 100 µM and the TGI (A498 renal) was 47.2 µM. For the same molecule, the TGI (MDA-N) was greater than 100 µM, the TGI (MDA-MB-231 breast) was 65.1 µM and the TGI (SK-MEL-5 melanoma) was greater than 100 µM. It also gave a TGI (NCI-H460 lung) of 31.3 µM, a TGI (786-0 renal) greater than 100 µM and a TGI (CAKI-1 renal) greater than 100 µM. For the same molecule, the TGI (MOLT-4 leukemia) was 95.1 µM and the TGI (UACC-62 melanoma) was greater than 100 µM.
In the case of `O=C1C(=C(C(=O)c2ccccc2)C(=O)c2ccccc2)OC(c2ccccc2)=C1C(=O)c1ccccc1`, the TGI (NCI-H226 lung) is reported as 16.4 µM, the TGI (SK-MEL-2 melanoma) is reported as 28.3 µM and the TGI (SN12C renal) is reported as 19.2 µM. It also gave a TGI (RPMI-8226 leukemia) of 24.9 µM, a TGI (SF-539 CNS) of 22.3 µM and a TGI (LOX IMVI melanoma) of 18.5 µM. It also gave a TGI (ACHN renal) of 20.1 µM, a TGI (NCI/ADR-RES ovarian) of 24.5 µM and a TGI (U251 CNS) greater than 100 µM. For the same molecule, the TGI (COLO 205 colon) was 25.7 µM, the TGI (UO-31 renal) was 26.7 µM and the TGI (HOP-92 NSCLC) was 31.6 µM. It also gave a TGI (T-47D breast) of 53.6 µM, a TGI (MCF7 breast) of 29.7 µM and a TGI (SR leukemia) of 14.2 µM. It also gave a TGI (HCC-2998 colon) of 27.6 µM, a TGI (HL-60(TB) leukemia) of 30.8 µM and a TGI (EKVX NSCLC) of 34.8 µM. It also gave a TGI (MALME-3M melanoma) of 39.4 µM, a TGI (OVCAR-5 ovarian) of 50.4 µM and a TGI (HT29 colon) of 26.5 µM. For the same molecule, the TGI (PC-3 prostate) was greater than 100 µM, the TGI (SK-OV-3 ovarian) was 34.6 µM and the TGI (BT-549 breast) was 19.9 µM. The TGI (SF-295 CNS) was 32.1 µM, the TGI (HCT-116 colon) was 14.1 µM and the TGI (K-562 leukemia) was 95 µM. The TGI (RXF 393 renal) was 8.13 µM, the TGI (M14 melanoma) was 31 µM and the TGI (CCRF-CEM leukemia) was 10.9 µM. It also gave a TGI (HOP-62 NSCLC) of 15.6 µM, a TGI (MDA-MB-435) of 35.4 µM and a TGI (SNB-19 CNS) greater than 100 µM. For the same molecule, the TGI (NCI-H23 lung) was 25.8 µM, the TGI (HS 578T breast) was 54.3 µM and the TGI (OVCAR-3 ovarian) was 23 µM. For the same molecule, the TGI (IGROV1 ovarian) was 8.84 µM, the TGI (KM12 colon) was 42.3 µM and the TGI (TK-10 renal) was 61.4 µM. The TGI (OVCAR-8 ovarian) was 15.7 µM, the TGI (SF-268 CNS) was 34.8 µM and the TGI (NCI-H522 lung) was 19.5 µM. The TGI (OVCAR-4 ovarian) was 9.2 µM, the TGI (SK-MEL-28 melanoma) was 59 µM and the TGI (DU-145 prostate) was 48.8 µM. The TGI (A549 NSCLC) was 51.6 µM, the TGI (HCT-15 colon) was 14.9 µM and the TGI (UACC-257 melanoma) was 55.1 µM. For the same molecule, the TGI (A498 renal) was 44.2 µM, the TGI (MDA-N) was 77.9 µM and the TGI (MDA-MB-231 breast) was 32.2 µM. It also gave a TGI (SK-MEL-5 melanoma) of 25 µM, a TGI (NCI-H460 lung) of 19.2 µM and a TGI (786-0 renal) of 20 µM. The TGI (CAKI-1 renal) was 11.2 µM, the TGI (MOLT-4 leukemia) was 9.86 µM and the TGI (UACC-62 melanoma) was 22.8 µM.
